Patent publication US8772355B2, “Stealth polymeric particles for delivery of bioactive or diagnostic agents” (Howard University, priority 2010, dated 2014)

Test: Preliminary solubility tests
Type: physicochemical
Settings: preliminary solubility tests for both compounds

CC(=O)N(C(C)=O)C1=C(Cl)C(=O)c2ccccc2C1=O [Zapp88, 2-chloro-3-diacetylamino-1,4-naphthoquinone]
hydrophobicity compared with paclitaxel: more hydrophobic
